According to patent US11207301B2, “Sphingosine 1 phosphate receptor agonists for neuroprotection” (RECEPTOS LLC, priority 2017, dated 2021):

Experiments:
Format in all cases: cell-based
[1] = tested on: ERK phosphorylation in primary mouse astrocytes; test: ERK phosphorylation in primary mouse cortical astrocytes (AlphaLISA SureFire Ultra); conditions: Astrocyte, 10 min, 10-minute exposure
Procedure: (§1) For the experiments using mouse and human primary astrocytes, ten-point concentration-response curves (90 nM-4.57 pM or 30 nM-1.52 pM) were generated for AKT and/or ERK phosphorylation in primary human and mouse cortical astrocytic cultures in response to a 10-minute treatment with ozanimod, Compound 3, Compound 1, or FTY720-P. AKT and ERK phosphorylation were quantified using AlphaLISA SureFire Ultra Assay kits and the EnVision Plate Reader. AKT and ERK phosphorylation within treated astrocytes were expressed as the mean change in signal intensity compared to the dimethyl sulfoxide (DMSO) vehicle and the half maximal effective concentration (EC50) was determined using non-linear regression.
Timed pregnant (E16) C57BL/6J female mice arrive to the test facility on a weekly basis and were housed and cared for according to appropriate protocols for this model. Primary mouse cortical astrocytes are harvested from P0-P2 pups. The newly born animals were deeply anesthetized on ice, decapitated, and the brains were rapidly removed and stored in ice-cold NbAstro media (BrainBits, LLC). Cells were dissociated from freshly dissected cortices by mechanical disruption in the presence of trypsin and DNase. Cells were put into a PDL coated T75 tissue culture flask containing 16 mL NbAstro Media and incubated at 37° C. 5% CO2. Once the mouse astrocytes had reached confluency in the T75 flask, they were detached using TripLE detachment reagent, pelleted at 300×g, expanded into two T225 PDL coated tissue culture flasks containing 40 mL of NbAstro and incubated at 37° C. 5% CO2. […]
Cell lysis and detection of pERK were performed according to the PerkinElmer AlphaLISA SureFire Ultra p-ERK1/2 (Thr202/TYR 204) assay protocol. […] The plates were read on the EnVision Plate Reader to assess the pERK levels.
(§2) The AKT and ERK phosphorylation data, collected by a Perkin Elmer EnVision Microplate Reader, was analyzed by non-linear regression (GraphPad Prism, version 7.03) to determine the EC50 values.

[2] = tested on: AKT phosphorylation in primary rat astrocytes; test: AKT phosphorylation in primary rat astrocytes (MSD pAKT assay); conditions: Astrocyte, 10 min, 10-minute exposure, mean of n=4
Procedure: For the experiments using rat primary astrocytes, eight-point concentration-response curves were generated for AKT and ERK phosphorylation in primary rat astrocytes cultures in response to a 10-minute treatment with ozanimod (100 nM-46 pM), Compound 3 (10 nM-5 pM), Compound 1 (10 nM-5 pM), or FTY720-P (10 nM-5 pM). Phosphorylation of AKT and ERK was quantified using Meso Scale Discovery assay kits (MSD Mutli-Spot Phopho-AKT (Ser473) Assay Kit and MSD Multi-Spot MAP Kinase Phosphoprotein Assay Whole Cell Lysate Kit) and imaging platform. AKT and ERK phosphorylation within treated astrocytes were assessed as the mean change in signal intensity compared to DMSO vehicle and the half maximal effective concentration (EC50) was determined using non-linear regression.
Embryonic day18 (E18) rat cortices were purchased from BrainBits LLC. (Springfield, Ill.) and were cultured according to the supplier's protocol. Briefly, cortices were incubated at 37° C. for 10 minutes in activated papain solution before trituration in hibernation medium containing B27 supplement using a modified siliconized glass Pasteur pipette. The cell suspension was centrifuged at 1100×g for 1 minute at room temperature (RT). The cell pellet was then resuspended in NbAstro medium (BrainBits LLC.) and the live cell density was assessed using a cell counter. Primary cells were plated at a density of 7500 cells/cm2 in T75 tissue culture flasks coated with poly-D-lysine (PDL) in a total volume of 12 mL of NbAstro media, and incubated for 10-14 days at 37° C. 5% CO2. After 10-14 days, primary astrocytes in passage 0 (P0) that had reached confluency in the T75 flasks were detached using TrypLE detachment reagent, pelleted at 300×g, and plated into poly-d-lysine coated T225 flasks in 20 mL of NbAstro media, and incubated for another 7 days at 37° C. 5% CO2. After 7 days, primary P1 astrocytes in confluent T225 flasks were detached using TrypLE detachment reagent, pelleted at 300×g, and plated intopoly-d-lysine coated 96-well plates at 10,000 cells per well in 200 μL of NbAstro media, and incubated for 7 days at 37° C. 5% CO2. After 7 days, P2 primary astrocytes were utilized for pAKT and pERK assays.
The pAKT (phosphorylated AKT) assay was performed according to the manufacturer's protocol. Briefly, MSD pAKT plates were blocked for 1-2 hours by adding 150 μL of blocker A prepared in 1× Tris wash buffer. […] Following antibody incubation, plates were washed three times with 150 μL of 1× Tris wash buffer and 1× read buffer (150 μL/well) was added. Finally, plates were read in the MSD imager platform to assess pAKT levels.
AKT and ERK phosphorylation data were analyzed by non-linear regression (GraphPad Prism, version 6) to determine the EC50 values.

[3] = tested on: AKT phosphorylation in primary mouse astrocytes; test: AKT phosphorylation in primary mouse cortical astrocytes (AlphaLISA SureFire Ultra); conditions: Astrocyte, 10 min, 10-minute exposure, mean of n=3
Procedure: as §1
Timed pregnant (E16) C57BL/6J female mice arrive to the test facility on a weekly basis and were housed and cared for according to appropriate protocols for this model. Primary mouse cortical astrocytes are harvested from P0-P2 pups. The newly born animals were deeply anesthetized on ice, decapitated, and the brains were rapidly removed and stored in ice-cold NbAstro media (BrainBits, LLC). Cells were dissociated from freshly dissected cortices by mechanical disruption in the presence of trypsin and DNase. Cells were put into a PDL coated T75 tissue culture flask containing 16 mL NbAstro Media and incubated at 37° C. 5% CO2. Once the mouse astrocytes had reached confluency in the T75 flask, they were detached using TripLE detachment reagent, pelleted at 300×g, expanded into two T225 PDL coated tissue culture flasks containing 40 mL of NbAstro and incubated at 37° C. 5% CO2. Once the astrocytes reached confluency in the T225 flasks they were detached using TrypLE detachment reagent, pelleted at 300×g, plated into PDL coated 96-well plates at a density of 10,000 cells per well in 200 μL NbAstro and incubated at 37° C. 5% CO2. Half of the media was replenished every 3-4 days. After 5-7 days of incubation, the P2 mouse astrocyte plates were utilized for the pERK and pAKT assays.
Cell lysis and detection of pAKT were performed according to the PerkinElmer AlphaLISA SureFire Ultra pAKT1/2/3 ([…]) assay protocol. Astrocytes were lysed in the 96-well plate following a 10 minute incubation with compounds with shaking at room temperature (RT). The astrocytic lysates (10 μL/well) were transferred into a 384-well OptiPlate. As specified by the assay protocol, an acceptor bead mix and a donor bead mix (5 μL/well for each) were added to the plate under subdued light. […] The plates were read on the EnVision Plate Reader to assess the pAKT levels.
as §2

EC50 [1]	EC50 [2]	EC50 [3]	SMILES
0.87 nM	0.66 nM	0.49 nM	CC(C)Oc1ccc(-c2nc(-c3cccc4c3CCC4=O)no2)cc1C#N [Compound 1, 2-isopropoxy-5-(3-(1-oxo-2,3-dihydro-1H-inden-4-yl)-1,2,4-oxadiazol-5-yl)benzonitrile]
2.42 nM	2.03 nM	0.9 nM	CC(C)Oc1ccc(-c2nc(-c3cccc4c3CC[C@@H]4NCCO)no2)cc1C#N [Ozanimod]
